According to ChEMBL document CHEMBL1201862, “PubChem BioAssay data set” (2004):
Activity calls are given as the source filed them.

Assays:
Cytochrome P450 2C19 = Cytochrome P450 2C19 (Homo sapiens, UniProt P33261); test: Cytochrome panel assay with activity outcomes. Panel member name: p450-cyp2c19 Compounds with AC50 equal or less than 10 uM are considered active; format: functional
Cytochrome P450 1A2 = target: T1, Cytochrome P450 1A2 (Homo sapiens, UniProt P05177);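 note: PubChem cytochrome P450 panel assay, CYP1A2 panel member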
T1 sequence (P05177 whole entry): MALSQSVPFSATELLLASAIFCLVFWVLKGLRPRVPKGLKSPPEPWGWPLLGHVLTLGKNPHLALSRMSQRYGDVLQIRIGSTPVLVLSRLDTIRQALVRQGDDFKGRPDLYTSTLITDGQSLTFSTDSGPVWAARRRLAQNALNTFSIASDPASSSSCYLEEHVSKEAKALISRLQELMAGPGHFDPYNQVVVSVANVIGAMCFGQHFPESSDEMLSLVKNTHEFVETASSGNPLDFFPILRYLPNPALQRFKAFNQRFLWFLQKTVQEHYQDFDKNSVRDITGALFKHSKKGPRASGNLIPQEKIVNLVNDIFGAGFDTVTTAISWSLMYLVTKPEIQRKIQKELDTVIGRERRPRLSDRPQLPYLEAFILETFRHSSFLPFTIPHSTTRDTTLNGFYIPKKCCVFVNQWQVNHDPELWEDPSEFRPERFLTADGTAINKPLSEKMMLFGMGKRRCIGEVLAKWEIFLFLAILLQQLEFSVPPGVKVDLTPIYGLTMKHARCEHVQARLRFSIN

Cytochrome P450 2D6 = Cytochrome P450 2D6 (Homo sapiens, UniProt P10635);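 note: CYP2D6 member of a cytochrome P450 panel assay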
Cytochrome P450 3A4 = Cytochrome P450 3A4 (Homo sapiens, UniProt P08684);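 note: CYP3A4 tested as one member of a cytochrome P450 panel screen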
[1] = luciferase reporter signal suppression in cells – H4 neuroglioma cells, luminescence, dose response (AID 1990); format: functional, cell-based
HEK293 [2] = test: inhibition of NOD1-driven NF-kB reporter – cell-based, luminescence, uHTS, primary screen (AID 1578); format: functional; settings: Homo sapiens
HEK293 [3] = test: cells; format: functional, cell-based; settings: Homo sapiens
[4] = Luminescence Cell-Based Dose Response HTS to Identify Inhibitors of 5'UTR Stem-Loop Driven Prion Protein mRNA Translation in H4 Neuroglioblastoma Cells. [Related pubchem assays: 1827 (Project Summary), 1813 (Primary HTS)]; format: functional
[5] = alpha-synuclein stem-loop luciferase translation blockers – H4 neuroglioma cells, luminescence, confirmation (AID 1988); format: functional, cell-based
HEK293 [6] = test: cells; format: functional, cell-based; settings: Homo sapiens; remark: listed apart in the source
[7] = target: Nucleotide-binding oligomerization domain-containing protein 2 (Homo sapiens, UniProt Q9HC29); test: inhibition of NOD2-driven NF-kB reporter – cell-based, luminescence, uHTS, HEK293 (AID 1566); format: functional
HEK293 [8] = test: NOD2 signaling inhibitors in MDP-stimulated cells, cell-based, uHTS, luminescence (AID 2001); format: functional; settings: Homo sapiens
HEK293 [9] = test: cells; format: functional, cell-based; settings: Homo sapiens; remark: listed apart in the source
Tumor necrosis factor = Tumor necrosis factor (Homo sapiens, UniProt P01375); test: analog potency on TNFa NF-kB signaling – cell-based, revised, SAR follow-up (AID 2337); format: functional
[10] = target: T2, Nucleotide-binding oligomerization domain-containing protein 1 (Homo sapiens, UniProt Q9Y239); test: blockers of NOD1 pathway activity – revised, SAR follow-up (AID 2333); format: functional
T2 sequence (Q9Y239 whole entry): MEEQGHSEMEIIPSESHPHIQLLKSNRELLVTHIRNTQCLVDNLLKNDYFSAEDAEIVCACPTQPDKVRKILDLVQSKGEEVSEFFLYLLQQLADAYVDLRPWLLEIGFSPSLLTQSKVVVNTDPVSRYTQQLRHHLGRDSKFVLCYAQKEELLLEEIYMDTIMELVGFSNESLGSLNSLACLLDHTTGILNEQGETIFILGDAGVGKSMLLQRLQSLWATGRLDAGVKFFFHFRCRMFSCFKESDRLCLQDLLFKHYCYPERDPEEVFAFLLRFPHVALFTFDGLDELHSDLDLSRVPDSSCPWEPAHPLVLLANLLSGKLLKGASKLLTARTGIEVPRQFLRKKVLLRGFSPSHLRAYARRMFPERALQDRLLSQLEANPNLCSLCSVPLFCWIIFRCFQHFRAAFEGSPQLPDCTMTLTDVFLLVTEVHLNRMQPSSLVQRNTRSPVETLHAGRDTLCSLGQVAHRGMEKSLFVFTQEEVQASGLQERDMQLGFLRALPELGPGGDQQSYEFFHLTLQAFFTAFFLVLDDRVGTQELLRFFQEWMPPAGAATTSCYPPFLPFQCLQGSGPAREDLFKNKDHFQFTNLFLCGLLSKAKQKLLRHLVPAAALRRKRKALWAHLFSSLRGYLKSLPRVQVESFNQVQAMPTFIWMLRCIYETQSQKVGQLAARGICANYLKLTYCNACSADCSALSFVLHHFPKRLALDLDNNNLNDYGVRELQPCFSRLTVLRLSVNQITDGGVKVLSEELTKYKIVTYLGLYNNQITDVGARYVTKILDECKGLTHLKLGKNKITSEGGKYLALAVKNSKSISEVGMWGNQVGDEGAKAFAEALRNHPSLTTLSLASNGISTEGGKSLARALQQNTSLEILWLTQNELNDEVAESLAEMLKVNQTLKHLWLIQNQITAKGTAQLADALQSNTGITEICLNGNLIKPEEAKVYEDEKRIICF

HEK293 [11] = test: cells; settings: Homo sapiens

Chain of Cytochrome P450 2D6 (P10635 whole entry): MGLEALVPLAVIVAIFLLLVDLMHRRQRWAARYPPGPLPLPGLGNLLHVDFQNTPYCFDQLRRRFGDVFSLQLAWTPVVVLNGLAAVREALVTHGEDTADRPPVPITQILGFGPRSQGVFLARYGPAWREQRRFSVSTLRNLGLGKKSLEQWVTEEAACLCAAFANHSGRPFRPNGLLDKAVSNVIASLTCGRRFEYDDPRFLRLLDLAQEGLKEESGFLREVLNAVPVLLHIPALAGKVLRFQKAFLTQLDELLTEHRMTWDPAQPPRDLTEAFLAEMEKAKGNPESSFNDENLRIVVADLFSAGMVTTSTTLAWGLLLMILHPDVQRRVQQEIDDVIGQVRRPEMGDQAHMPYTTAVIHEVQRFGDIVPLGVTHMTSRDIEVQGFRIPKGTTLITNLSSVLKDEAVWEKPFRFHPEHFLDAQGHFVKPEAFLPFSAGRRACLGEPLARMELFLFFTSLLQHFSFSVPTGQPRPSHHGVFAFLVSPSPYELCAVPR
Chain of Cytochrome P450 2C19 (P33261 whole entry): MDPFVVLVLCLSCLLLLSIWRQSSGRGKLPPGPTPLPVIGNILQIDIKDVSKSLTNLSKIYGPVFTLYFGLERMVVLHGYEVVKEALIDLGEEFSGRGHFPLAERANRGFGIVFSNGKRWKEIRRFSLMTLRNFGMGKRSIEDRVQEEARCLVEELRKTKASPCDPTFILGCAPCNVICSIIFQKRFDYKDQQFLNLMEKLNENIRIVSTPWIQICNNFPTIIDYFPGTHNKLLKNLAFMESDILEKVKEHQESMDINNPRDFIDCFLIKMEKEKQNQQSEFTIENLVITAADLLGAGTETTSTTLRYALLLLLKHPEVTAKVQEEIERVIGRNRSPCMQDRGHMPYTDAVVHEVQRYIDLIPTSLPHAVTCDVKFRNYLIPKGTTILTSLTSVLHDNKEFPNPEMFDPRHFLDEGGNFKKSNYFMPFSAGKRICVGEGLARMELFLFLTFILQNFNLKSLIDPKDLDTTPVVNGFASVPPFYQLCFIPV
Chain of Cytochrome P450 3A4 (P08684 whole entry): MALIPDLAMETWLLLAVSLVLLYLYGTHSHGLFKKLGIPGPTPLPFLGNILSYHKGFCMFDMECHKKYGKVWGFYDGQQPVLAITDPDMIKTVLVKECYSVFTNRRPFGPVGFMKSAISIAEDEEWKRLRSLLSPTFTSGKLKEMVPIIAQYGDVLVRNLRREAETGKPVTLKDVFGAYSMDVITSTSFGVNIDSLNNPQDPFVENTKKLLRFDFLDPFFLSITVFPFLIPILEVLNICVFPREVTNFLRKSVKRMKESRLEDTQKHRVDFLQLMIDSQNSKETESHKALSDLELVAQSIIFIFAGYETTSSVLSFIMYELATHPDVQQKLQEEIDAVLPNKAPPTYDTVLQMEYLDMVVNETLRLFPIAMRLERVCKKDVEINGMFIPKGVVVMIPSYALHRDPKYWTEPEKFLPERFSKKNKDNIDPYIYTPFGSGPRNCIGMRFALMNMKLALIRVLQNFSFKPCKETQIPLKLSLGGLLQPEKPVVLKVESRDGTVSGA
Chain of Nucleotide-binding oligomerization domain-containing protein 2 (Q9HC29 whole entry, the tested form may be a part): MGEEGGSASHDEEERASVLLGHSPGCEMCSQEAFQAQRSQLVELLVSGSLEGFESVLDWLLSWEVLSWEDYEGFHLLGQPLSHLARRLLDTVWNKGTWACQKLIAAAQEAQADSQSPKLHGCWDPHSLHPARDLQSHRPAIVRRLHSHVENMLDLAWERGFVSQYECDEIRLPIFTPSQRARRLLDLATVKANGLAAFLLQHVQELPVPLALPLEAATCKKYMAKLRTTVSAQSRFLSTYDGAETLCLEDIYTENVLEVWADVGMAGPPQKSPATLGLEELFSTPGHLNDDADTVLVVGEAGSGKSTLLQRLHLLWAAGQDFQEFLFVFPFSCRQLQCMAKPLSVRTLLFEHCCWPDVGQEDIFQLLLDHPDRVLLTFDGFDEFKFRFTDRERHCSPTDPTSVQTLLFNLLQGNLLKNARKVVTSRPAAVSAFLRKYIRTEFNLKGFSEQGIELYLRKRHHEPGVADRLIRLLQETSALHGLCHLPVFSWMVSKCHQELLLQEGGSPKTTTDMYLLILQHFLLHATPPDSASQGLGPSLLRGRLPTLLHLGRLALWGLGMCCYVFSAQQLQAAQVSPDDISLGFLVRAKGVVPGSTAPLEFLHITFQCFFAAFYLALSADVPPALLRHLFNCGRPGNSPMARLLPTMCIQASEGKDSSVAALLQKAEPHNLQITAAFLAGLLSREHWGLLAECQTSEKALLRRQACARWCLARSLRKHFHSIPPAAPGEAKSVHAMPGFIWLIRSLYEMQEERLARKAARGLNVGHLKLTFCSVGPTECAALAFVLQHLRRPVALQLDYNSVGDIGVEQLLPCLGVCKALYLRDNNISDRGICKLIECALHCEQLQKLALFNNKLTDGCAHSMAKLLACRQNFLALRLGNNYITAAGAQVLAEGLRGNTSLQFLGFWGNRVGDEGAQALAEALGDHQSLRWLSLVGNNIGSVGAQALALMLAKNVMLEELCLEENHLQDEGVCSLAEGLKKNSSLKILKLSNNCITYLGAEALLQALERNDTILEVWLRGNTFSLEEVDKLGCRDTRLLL
Chain of Tumor necrosis factor (P01375 whole entry, the tested form may be a part): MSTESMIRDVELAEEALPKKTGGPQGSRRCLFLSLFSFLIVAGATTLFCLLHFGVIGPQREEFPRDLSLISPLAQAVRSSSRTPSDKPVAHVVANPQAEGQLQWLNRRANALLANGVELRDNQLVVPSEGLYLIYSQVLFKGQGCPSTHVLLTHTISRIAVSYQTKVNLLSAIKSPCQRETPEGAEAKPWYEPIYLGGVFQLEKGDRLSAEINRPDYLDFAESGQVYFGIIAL

CC(C)n1nnc2ccccc2c1=O
inconclusive: AC50 (Cytochrome P450 2C19; read-out: AC50) 39.8 µM | AC50 (Cytochrome P450 1A2) 11.2 µM | AC50 (Cytochrome P450 2D6) | AC50 (Cytochrome P450 3A4)

CCOc1cc(CNCCO)c(Cl)cc1OCC(=O)NCCc1ccccc1
inconclusive: AC50 (Cytochrome P450 2D6)

O=C(O)CCC(=O)Nc1ccc(C(=O)N2CCCCC2)cc1
inconclusive: AC50 (Cytochrome P450 2C19) | AC50 (Cytochrome P450 2D6)

COc1cc(C(=O)Nc2sc3c(c2C(=O)O)CCC(C)C3)cc(OC)c1OC (centres undefined)
inactive: IC50 (HEK293 [3]) > 20 µM | IC50 (HEK293 [6]) > 20 µM | IC50 (HEK293 [9]) > 20 µM | IC50 (HEK293 [11]) > 20 µM
active: EC50 (HEK293 [2]) 4.16 µM | EC50 [5] 12.8 µM | EC50 [7] 2.24 µM | IC50 (HEK293 [8]) 9.76 µM | IC50 (Tumor necrosis factor) 7.41 µM | IC50 [10] 5.19 µM
> 120 µM (not active): EC50 [1] | EC50 [4]
